# Where “and” joins values, the source holds several entries; their conditions need not be identical. Identical values can stand only once. Like-named read-outs stand apart in the source and are kept apart here. Positions of bridges follow the written chain, without caps; N, C: chain ends. Residues, ends and D or L forms follow the SMILES beside them.
# What was measured:
# Female beagles [1] = conditions: dog, in vivo
# Protocol: (§1) One hour later, enteric aspirin tablets (containing 200 mg of the active ingredient) were administered orally together with 25 ml of water. Thereafter, blood samples were taken from the other cephalic vein at given time intervals, and the plasma obtained in the usual manner was stored at -20° C. until measurement.
# (§2) As it passes through the intestinal wall, most of the ingested aspirin is metabolized and enters the blood stream as salicylic acid. […] Ethanol (200 μl) was added to 50 μl of plasma and the mixture was centrifuged at 10,000 rpm×1 min, with the resulting supernatant being subjected to HPLC.
# (§3) The difference between the time from calcitonin administration to the absorption of aspirin and the time from physiological saline administration to the absorption of aspirin was calculated for each animal to determine the delay in gastric emptying time.
# conscious dog = assay: Effects of calcitonins on gastrointestinal motility (IMC) in conscious dog; assay type: in vivo, beagle dog; conditions: for effect on the IMC / gastrointestinal motility: i.v., conscious dog, summary of Table 10
# Description: A healthy beagle dog weighing about 10 kg was anesthetized with an i.v. injection of pentobarbital sodium and the abdominal cavity was opened under aseptic conditions.
# Extraluminal force transducers were sutured onto the serosa of the gastric antrum stomach, duodenum and jejunum to measure circular muscle contraction, as reported previously (Itoh et al. Gastroenterol Jpn. 12, 275 1977).
# The lead wires of these transducers were out of the abdominal cavity and then brought out through a skin incision made between the scapulae.
# After the abdominal surgery, a 5-cm longitudinal skin incision was made in the right Frontal neck to expose the external jugular vein.
# After the operation, a jacket protector was placed on the dog to protect the lead wires and the Silastic tube.
# The dog was housed in individual experimental cage, and given commercial dog food at 5:00 P.M. and water was given freely.
# The gastrointestinal motor activity was recorded on a thermal pen writing recorder (WR-3101, Graphtic, Tokyo, Japan) by connecting the lead wires of the transducers to the connecting cables from the amplifiers (UG-5, Nihon Kohden, Tokyo, Japan).
# About two weeks postoperation, gastrointestinal contractile activity could be divided into two main patterns of activity, the interdigestive and digestive states.
# In the interdigestive state, IMC (interdigestive migrating motor complex) were seen to occur at regular intervals of 100 to 120 min. in the gastric antrum, and migrated through the duodenum and jejunum at a constant velocity.
# In all animals, feeding disrupted the regular IMC pattern. Experiments were carried out during interdigestive state. The drug was dissolved into 0.9% saline and administered through the indwelling Silastic tube for about 10 seconds in a volume of 0.3 ml/kg.
# 15 Min after the end of the IMC in the gastric antrum, which were subsequently flushed in with 0.9% saline.
# The time until the next IMC is occurred from administration of the drug was measured, and used as a index for inhibitory activity of the drug on gastrointestinal motility.
# [2] = system: anti-salmon calcitonin human sera; assay: Cross reaction between anti-salmon calcitonin human antibody and hybrid calcitonin (competition with 125I labelled salmon calcitonin); assay type: binding; conditions: anti-salmon calcitonin human sera Nos. 1-4, FIG. 5
# Protocol: Salmon calcitonin was synthesized by an ordinary procedure of solid-phase synthesis. Salmon calcitonin labelled with ^125 I was prepared by the Tejedor method (Tejedor, F. and Ballesta, J. P. G.; Analytical Biochemistry, 127, 143-149 (1982)).
# Four types of human sera that had been verified to contain antibody after administration of salmon calcitonin were furnished from Dr. Frederick R. Singer (CEDERS-SINAI MEDICAL CENTER). The antibody titres of those sera against salmon calcitonin were as follows:
# A 0.1M borate buffer solution (pH 8.0) containing 0.5% BSA, 0.9% NaCl, 0.1% NaN3 and 0.05% Tween 20 was used as a reaction buffer. This reaction buffer, anti-salmon calcitonin human serum (diluted with the reaction buffer to a final dilution of 100-6,400) and a solution of labelled calcitonin were charged into an assist tube (Spitz type of Salschted Inc. measuring 12×75 mm) in the respective volumes shown below, stirred thoroughly, and left to stand overnight at room temperature.
# The reaction solution was mixed well with 500 μl of 0.2% BGG (bovine γ-globulin, Sigma), further mixed with 1 ml of 25% PEG #6000, stirred thoroughly and thereafter left to stand at room temperature for 15 min. […] After removing the supernatant by aspiration, the radioactivity level of the residue was measured with a gamma-counter. […]
# hypercalcemic rats = assay: Efficacy of calcitonins against hypercalcemia (vitamin D3 hypercalcemic rats); assay type: in vivo, rat; conditions: 4 IU/kg subcutaneously, FIG. 1
# Protocol: Vitamin D3 (5 mg/kg) was administered orally to 5-wk old SD male rats for 4 consecutive days to construct experimental models of hypercalcemic rats. […] Blood was sampled at given time intervals and the concentration of calcium in plasma was measured.
# Female beagles [3] = assay: Effects of calcitonins on gastric emptying time (enteric aspirin absorption); conditions: for Delay time (difference in time to aspirin absorption between calcitonin and physiological saline) / Lag time (time from aspirin administration to its absorption): individual animals
# Protocol: as §1, §2, §3
# Rats = assay: Effects of calcitonins on the inhibition of body weight gain and appetite; conditions: intramuscular, 12.5, 50 and 200 IU/kg, 24 h later
# Protocol: Each of the calcitonins was administered in three different doses: 12.5 IU/kg, 50 IU/kg and 200 IU/kg. For the body weight changes, the measured values were averaged for 5 rats, and for the food consumption, the measured values for 5 rats were added together.
Compound,action in delaying the gastric emptying time (Female beagles [1]),delay of the occurrence of the next IMC (conscious dog; dose of 3 μg/kg i.v.) [days],effect on the IMC / gastrointestinal motility (conscious dog),dose at which competition with 125I labelled salmon calcitonin started [2],effect on elevated blood (plasma) calcium concentration (hypercalcemic rats),"action in delaying the gastric emptying time (Female beagles [3]; beagles, summary of Table 9)",Delay time (difference in time to aspirin absorption between calcitonin and physiological saline) (Female beagles [3]; dose 6 μg (1.2 IU)/kg i.v.),Lag time (time from aspirin administration to its absorption) (Female beagles [3]; dose 6 μg (1.2 IU)/kg i.v.),Delay time (difference in time to aspirin absorption between calcitonin and physiological saline) (Female beagles [3]; dose 100 μg (20.0 IU)/kg i.v.),Lag time (time from aspirin administration to its absorption) (Female beagles [3]; dose 100 μg (20.0 IU)/kg i.v.),body weight change (inhibition of body weight gain) (Rats; FIG. 3),food consumption (appetite) (Rats; FIG. 4)
CC(C)C[C@H](NC(=O)[C@H](CCCCN)NC(=O)CNC(=O)[C@H](CC(C)C)NC(=O)[C@@H](NC(=O)[C@@H]1CSSC[C@H](N)C(=O)N[C@@H](CO)C(=O)N[C@@H](CC(N)=O)C(=O)N[C@@H](CC(C)C)C(=O)N[C@@H](CO)C(=O)N[C@@H]([C@@H](C)O)C(=O)N1)C(C)C)C(=O)N[C@@H](CO)C(=O)N[C@@H](CCC(N)=O)C(=O)N[C@@H](CCC(=O)O)C(=O)N[C@@H](CC(C)C)C(=O)N[C@@H](Cc1c[nH]cn1)C(=O)N[C@@H](CCCCN)C(=O)N[C@@H](CC(C)C)C(=O)N[C@@H](CCC(N)=O)C(=O)N[C@H](C(=O)N[C@@H](Cc1ccc(O)cc1)C(=O)N1CCC[C@H]1C(=O)N[C@@H](CCCNC(=N)N)C(=O)N[C@H](C(=O)N[C@@H](CC(N)=O)C(=O)N[C@H](C(=O)NCC(=O)N[C@@H](CO)C(=O)NCC(=O)N[C@H](C(=O)N1CCC[C@H]1C(N)=O)[C@@H](C)O)[C@@H](C)O)[C@@H](C)O)[C@@H](C)O [salmon calcitonin],very strong action in delaying the gastric emptying time,3,does-dependently inhibited the occurrence of the next IMC,at least 1 ng/ml,caused rapid reduction in the elevated blood calcium concentration,,,,,,,
CC[C@H](C)[C@H](NC(=O)[C@H](C)NC(=O)[C@@H](NC(=O)[C@H](CCC(N)=O)NC(=O)[C@@H]1CCCN1C(=O)[C@H](Cc1ccccc1)NC(=O)[C@@H](NC(=O)[C@H](Cc1c[nH]cn1)NC(=O)[C@H](Cc1ccccc1)NC(=O)[C@H](CCCCN)NC(=O)[C@H](CC(N)=O)NC(=O)[C@H](Cc1ccccc1)NC(=O)[C@H](CC(=O)O)NC(=O)[C@H](CCC(N)=O)NC(=O)[C@@H](NC(=O)[C@H](Cc1ccc(O)cc1)NC(=O)[C@@H](NC(=O)CNC(=O)[C@H](CC(C)C)NC(=O)[C@H](CCSC)NC(=O)[C@@H]1CSSC[C@H](N)C(=O)NCC(=O)N[C@@H](CC(N)=O)C(=O)N[C@@H](CC(C)C)C(=O)N[C@@H](CO)C(=O)N[C@@H]([C@@H](C)O)C(=O)N1)[C@@H](C)O)[C@@H](C)O)[C@@H](C)O)[C@@H](C)O)C(=O)NCC(=O)N[C@H](C(=O)NCC(=O)N[C@@H](C)C(=O)N1CCC[C@H]1C(N)=O)C(C)C [human calcitonin],,,only a slight effect on the IMC,,caused rapid reduction in the elevated blood calcium concentration,weak in such action,1.3 h and 2.6 h and 2.9 h,3.0 h and 3.9 h and 4.0 h,4.4 h and 5.0 h,5.0 h and 6.9 h,no differences,no differences
"CSCC[C@H](NC(=O)[C@@H]1CSSC[C@H](N)C(=O)NCC(=O)N[C@@H](CC(N)=O)C(=O)N[C@@H](CC(C)C)C(=O)N[C@@H](CO)C(=O)N[C@@H]([C@@H](C)O)C(=O)N1)C(=O)N[C@@H](CC(C)C)C(=O)NCC(=O)N[C@H](C(=O)N[C@@H](Cc1ccc(O)cc1)C(=O)N[C@H](C(=O)N[C@@H](CCC(N)=O)C(=O)N[C@@H](CC(=O)O)C(=O)N[C@@H](Cc1ccccc1)C(=O)N[C@@H](Cc1c[nH]cn1)C(=O)N[C@@H](CCCCN)C(=O)N[C@@H](CC(C)C)C(=O)N[C@@H](CCC(N)=O)C(=O)N[C@H](C(=O)N[C@@H](Cc1ccc(O)cc1)C(=O)N1CCC[C@H]1C(=O)N[C@@H](CCCNC(=N)N)C(=O)N[C@H](C(=O)N[C@@H](CC(N)=O)C(=O)N[C@H](C(=O)NCC(=O)N[C@@H](CO)C(=O)NCC(=O)N[C@H](C(=O)N1CCC[C@H]1C(N)=O)[C@@H](C)O)[C@@H](C)O)[C@@H](C)O)[C@@H](C)O)[C@@H](C)O)[C@@H](C)O [Example 1, (1-16) human/(17-32) salmon hybrid calcitonin] (H-CGNLSTCMLGTYTQDFHKLQTYPRTNTGSGTP-NH2; disulfide 1-7)",more similar to human calcitonin than salmon calcitonin in delaying to gastric emptying time,,,,,,,,,,,

# — US5831000A, “Hybrid calcitonin” (Chugai Seiyaku Kabushiki Kaisha, priority 1990, dated 1998)
